Experiments:
GABAA = experiment: Functional selectivity panel, GABAA; format: biochemical; conditions: up to 10 micromolar
Description: (§1) A broad panel of 78 recombinant targets was tested for pharmacologic activity in vitro through a variety of functional assays (Eurofins DiscoverX, USA), as part of the National Institute of Neurological Disorders and Stroke (NINDS) Preclinical Screening Platform for Pain (PSPP) program. The biological targets for the in vitro profiling have been selected based on avoiding opioid receptor stimulation and targets known to be associated with adverse events or targeted by drugs of abuse. […] For each test, a reference compound was evaluated at the target of interest as a positive control.

OATP1B3 = OATP1B3 (Homo sapiens, UniProt Q9NPD5); experiment: Transporter substrate, OATP1B3; format: in vitro ADME; conditions: role: substrate
Chain of OATP1B3 (Q9NPD5 whole entry): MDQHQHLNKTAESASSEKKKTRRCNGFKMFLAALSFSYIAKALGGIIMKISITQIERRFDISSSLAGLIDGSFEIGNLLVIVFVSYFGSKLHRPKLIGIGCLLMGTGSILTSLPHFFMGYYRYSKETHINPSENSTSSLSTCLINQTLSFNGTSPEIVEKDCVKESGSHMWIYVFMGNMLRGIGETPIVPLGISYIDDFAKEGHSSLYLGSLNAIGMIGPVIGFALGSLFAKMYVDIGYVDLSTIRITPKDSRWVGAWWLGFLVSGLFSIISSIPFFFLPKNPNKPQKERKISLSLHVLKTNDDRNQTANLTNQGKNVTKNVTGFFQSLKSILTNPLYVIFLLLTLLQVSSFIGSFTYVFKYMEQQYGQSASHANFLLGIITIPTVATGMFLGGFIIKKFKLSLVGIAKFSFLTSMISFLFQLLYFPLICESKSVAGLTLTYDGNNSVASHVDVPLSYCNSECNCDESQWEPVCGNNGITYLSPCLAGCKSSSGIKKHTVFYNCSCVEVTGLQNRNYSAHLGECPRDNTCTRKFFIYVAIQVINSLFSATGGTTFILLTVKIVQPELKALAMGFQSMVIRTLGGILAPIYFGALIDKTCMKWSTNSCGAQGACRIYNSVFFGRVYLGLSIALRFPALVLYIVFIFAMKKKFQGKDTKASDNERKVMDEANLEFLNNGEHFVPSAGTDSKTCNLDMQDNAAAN
Description: (§2) Additionally, compound 760 was tested for its capability to act as a transporter substrate for various transporters, and was not found to be a transporter substrate for any of the tested transporters.

OAT3 = OAT3 (Homo sapiens, UniProt Q8TCC7); experiment: Transporter substrate, OAT3; format: in vitro ADME; conditions: role: substrate
Chain of OAT3 (Q8TCC7 whole entry): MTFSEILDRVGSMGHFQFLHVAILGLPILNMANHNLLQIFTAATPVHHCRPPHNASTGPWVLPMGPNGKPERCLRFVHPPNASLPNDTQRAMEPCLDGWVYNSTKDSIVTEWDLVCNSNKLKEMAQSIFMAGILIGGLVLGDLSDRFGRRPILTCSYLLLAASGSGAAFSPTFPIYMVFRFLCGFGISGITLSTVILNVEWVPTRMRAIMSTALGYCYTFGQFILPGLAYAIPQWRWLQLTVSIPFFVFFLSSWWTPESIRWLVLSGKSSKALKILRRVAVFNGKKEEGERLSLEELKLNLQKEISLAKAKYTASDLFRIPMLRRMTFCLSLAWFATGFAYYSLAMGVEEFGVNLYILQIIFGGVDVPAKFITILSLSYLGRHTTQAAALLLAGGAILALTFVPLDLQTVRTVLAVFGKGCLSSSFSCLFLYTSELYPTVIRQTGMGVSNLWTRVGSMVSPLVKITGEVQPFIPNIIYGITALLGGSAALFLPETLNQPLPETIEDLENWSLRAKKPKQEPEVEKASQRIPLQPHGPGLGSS
Description: as §2

MATE1 = experiment: Transporter substrate, MATE1; format: in vitro ADME; conditions: role: substrate
Description: as §2

[1] = test system: Post-operative Pain (POP) rats; experiment: Post-operative Pain model, mechanical PWT; format: in vivo, rat; conditions: 100 mg/kg, 6 hours post-dose
Description: All animal experiments were carried out according to the Guide for the Care and Use of Laboratory Animals (2011 edition) and approved by the Israel National Institutional Animal Care and Use Committee (IACUC). Young adult male SD rats (Envigo RMS, Israel), were used for in vivo efficacy: Spared Nerve Injury (SNI), Distal Tibial Injury (DTI) and Post-operative Pain (POP), 200-220 grams, Chronic Post-Ischemia Pain (CPIP) 275-325 grams, Monosodium iodoacetate-induced osteoarthritis (MIA-OA) 180-220 grams; for in vivo safety: 200-250 grams at study initiation. […] The health status of the animals used in this study was examined upon their arrival. Only animals in good health were acclimatized to laboratory conditions and were used in the studies. All studies were performed following at least five days of animal acclimation. During acclimation and throughout the entire study duration, animals were housed within a limited-access rodent facility and kept in groups with a maximum of 2-3 rats per polypropylene cage. The cages were fitted with solid bottoms and filled with sterile wood shavings as bedding material. […] Water was monitored periodically. […]
Post-operative Pain (POP): For this model, animals were anesthetized by medetomidine/ketamine sodium IP. […] On the following day, animal responses to von Frey (VF) filaments and hot-plate testing were recorded. […]

MIA-OA rats = experiment: Dynamic weight bearing in MIA-OA rats; format: in vivo, rat; conditions: 100 mg/kg (naproxen 30 mg/kg), 6 hours post-dose
Description: Monosodium iodoacetate-induced osteoarthritis (MIA-OA): The animals were anaesthetized using an Isoflurane+O2 mixture. Then 50 μl of MIA at a concentration of 60 mg/mL was injected into the right knee joint using a 30 G needle. On study days 13 and 14 following MIA injection, the animals' dynamic weight bearing and response to von Frey filaments were measured.
Dynamic Weight Bearing (DWB): DWB study was performed using the DWB2 apparatus (Bioseb, Paris, France). The rats were placed in a transparent cage containing a matrix comprising around 2000 high-precision force sensors embedded in its floor where they were allowed to move freely. The force sensors measured the weight distribution on each of the four paws of the animal in grams. The animal was filmed from above using a high-definition camera, and the video feed was analyzed in real-time during the test using tracking software, allowing a precise analysis of the animal's posture and hind paws identification. Out of 5 minutes of animal behavior recording, a segment of 2 minutes was analyzed. Once the analysis was completed, the software provided the weight distribution of each hind paw as the main readout and the ratio between the injured and intact hind paws was then calculated.

adrenergic α2A = biological target: T1, adrenergic α2A (Homo sapiens, UniProt P08913); experiment: Functional selectivity panel, adrenergic α2A; format: biochemical
T1 construct: Eurofins DiscoverX, USA
T1 sequence (P08913 whole entry): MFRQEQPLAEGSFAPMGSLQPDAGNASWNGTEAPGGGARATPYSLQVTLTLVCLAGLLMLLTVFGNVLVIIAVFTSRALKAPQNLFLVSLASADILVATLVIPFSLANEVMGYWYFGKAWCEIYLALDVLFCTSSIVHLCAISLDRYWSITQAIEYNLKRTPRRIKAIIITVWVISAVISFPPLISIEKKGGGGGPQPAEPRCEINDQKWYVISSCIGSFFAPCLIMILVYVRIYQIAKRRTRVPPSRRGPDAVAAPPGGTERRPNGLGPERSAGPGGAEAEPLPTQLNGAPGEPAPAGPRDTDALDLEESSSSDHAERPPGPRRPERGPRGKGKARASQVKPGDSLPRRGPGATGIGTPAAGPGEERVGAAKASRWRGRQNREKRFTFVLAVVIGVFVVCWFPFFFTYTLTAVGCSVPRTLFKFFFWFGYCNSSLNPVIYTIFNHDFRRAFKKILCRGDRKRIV
Description: as §1

cannabinoid 1 receptor = biological target: T2, cannabinoid 1 receptor (Homo sapiens, UniProt P21554); experiment: Functional selectivity panel, cannabinoid 1 receptor; format: biochemical
T2 construct: Eurofins DiscoverX, USA
T2 sequence (P21554 whole entry): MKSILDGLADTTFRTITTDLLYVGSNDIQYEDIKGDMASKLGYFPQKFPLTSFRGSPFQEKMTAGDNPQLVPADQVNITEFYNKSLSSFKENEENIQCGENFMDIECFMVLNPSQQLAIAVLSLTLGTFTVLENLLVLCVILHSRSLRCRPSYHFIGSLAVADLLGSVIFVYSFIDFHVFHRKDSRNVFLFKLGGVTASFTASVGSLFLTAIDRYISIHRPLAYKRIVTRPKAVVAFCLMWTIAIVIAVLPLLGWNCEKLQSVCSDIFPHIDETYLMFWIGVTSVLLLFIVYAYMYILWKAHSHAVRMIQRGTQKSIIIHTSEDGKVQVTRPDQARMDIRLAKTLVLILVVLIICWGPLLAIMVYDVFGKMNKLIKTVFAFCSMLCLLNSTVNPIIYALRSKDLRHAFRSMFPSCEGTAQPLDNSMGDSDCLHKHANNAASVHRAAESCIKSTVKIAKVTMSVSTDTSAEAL
Description: as §1

Row | Compound | Effect on GABAA (GABAA) | OATP1B3 substrate (OATP1B3) | OAT3 substrate (OAT3) | MATE1 substrate (MATE1) | Mechanical PWT [1] | Reversal of weight bearing changes (MIA-OA rats) | IC50 (adrenergic α2A) | IC50 (cannabinoid 1 receptor)
1 | O=C(Cc1nccc(-n2cc(Cl)c3cc(Cl)cc(Cl)c32)n1)NC1COCC1O (centres unmarked) [Compound 760] | no effect | not a transporter substrate | not a transporter substrate | not a transporter substrate | – | – | – | –
2 | O=C(Cc1cncc(-n2cc(Cl)c3cc(Cl)cc(Cl)c32)c1)N[C@@H]1COC[C@H]1O [Compound 661] | – | – | – | – | did not affect the mechanical PWT | 44% | 6 µM | 1.4 µM

Reference: patent US20260327211A1, “MODULATORS OF A POTASSIUM CHANNEL AND OF TRPV1 CHANNEL AND USES THEREOF” (Bsense Bio Therapeutics Ltd., priority 2023, published 2026)
